# From article PMC10436550, “Subacute toxicity evaluations of LPM3480392 in rats, a full µ-opioid receptor biased agonist” (Frontiers in Pharmacology, 2023)
# Assays:
# [1] = Food consumption, 4-week subacute toxicity study; format: in vivo, Sprague Dawley (SD) rats
# Protocol: Food consumption of all surviving animals was recorded twice a week during the dosing phase and then once a week in last 2 weeks of recovery phase.
# µ-opioid receptor (MOR) = tested on: µ-opioid receptor (MOR); design: method as in Yang et al., 2022; settings: ref Yang et al., 2022, cited from earlier work
# Sprague Dawley (SD) rats = experiment: Mortality and clinical observation, 4-week subacute toxicity study; format: in vivo, rat; settings: for Mild to severe increased activity, starting day: dosing phase
# Protocol: For all surviving animals, a morning and an afternoon observation every day were conducted for the moribundity and death. Daily observation was carried out once within 1 h after each dosing in dosing phase, and at least once daily in recovery phase, including mental status, food and water consumption, hair, discharge, mortality and other toxic reactions. Detailed observation was performed once every week, including appearance, movement, mental status, gland secretions, skin and mucosa color, respiration, genitals, mortality and other toxic reactions.
# The animals found dead were recorded for the observation or death time, and weighed followed by a complete postmortem examination to explore the cause of death. All required organs and tissue as listed in the Section 2.11 and other tissues with gross lesions were performed with histopathology examination. Animals found dead which could not be examined immediately were temporarily refrigerated.
# [2] = female rats, 0.6 mg/kg/day, Day 3
# [3] = female rats, 0.6 mg/kg/day, Day 7
# [4] = female rats, 0.6 mg/kg/day, Day 10
# [5] = female rats, 0.6 mg/kg/day, Day 14
# [6] = female rats, 0.6 mg/kg/day, Day 17
# [7] = female rats, 0.6 mg/kg/day, Day 21
# [8] = female rats, 0.6 mg/kg/day, Day 24
# [9] = female rats, 0.6 mg/kg/day, Day 28
# [10] = female rats, 0.6 mg/kg/day, Recovery day 20
# [11] = female rats, 0.6 mg/kg/day, Recovery day 27
# [12] = female rats, 1.2 mg/kg/day, Day 3
# [13] = female rats, 1.2 mg/kg/day, Day 7
# [14] = female rats, 1.2 mg/kg/day, Day 10
# [15] = female rats, 1.2 mg/kg/day, Day 14
# [16] = female rats, 1.2 mg/kg/day, Day 17
# [17] = female rats, 1.2 mg/kg/day, Day 21
# [18] = female rats, 1.2 mg/kg/day, Day 24
# [19] = female rats, 1.2 mg/kg/day, Day 28
# [20] = female rats, 1.2 mg/kg/day, Recovery day 20
# [21] = female rats, 1.2 mg/kg/day, Recovery day 27
# [22] = female rats, 2.4 mg/kg/day, Day 3
# [23] = female rats, 2.4 mg/kg/day, Day 7
# [24] = female rats, 2.4 mg/kg/day, Day 10
# [25] = female rats, 2.4 mg/kg/day, Day 14
# [26] = female rats, 2.4 mg/kg/day, Day 17
# [27] = female rats, 2.4 mg/kg/day, Day 21
# [28] = female rats, 2.4 mg/kg/day, Day 24
# [29] = female rats, 2.4 mg/kg/day, Day 28
# [30] = female rats, 2.4 mg/kg/day, Recovery day 20
# [31] = female rats, 2.4 mg/kg/day, Recovery day 27
# [32] = male rats, 0.6 mg/kg/day, Day 3
# [33] = male rats, 0.6 mg/kg/day, Day 7
# [34] = male rats, 0.6 mg/kg/day, Day 10
# [35] = male rats, 0.6 mg/kg/day, Day 14
# [36] = male rats, 0.6 mg/kg/day, Day 17
# [37] = male rats, 0.6 mg/kg/day, Day 21
# [38] = male rats, 0.6 mg/kg/day, Day 24
# [39] = male rats, 0.6 mg/kg/day, Day 28
# [40] = male rats, 0.6 mg/kg/day, Recovery day 20
# [41] = male rats, 0.6 mg/kg/day, Recovery day 27
# [42] = male rats, 1.2 mg/kg/day, Day 3
# [43] = male rats, 1.2 mg/kg/day, Day 7
# [44] = male rats, 1.2 mg/kg/day, Day 10
# [45] = male rats, 1.2 mg/kg/day, Day 14
# [46] = male rats, 1.2 mg/kg/day, Day 17
# [47] = male rats, 1.2 mg/kg/day, Day 21
# [48] = male rats, 1.2 mg/kg/day, Day 24
# [49] = male rats, 1.2 mg/kg/day, Day 28
# [50] = male rats, 1.2 mg/kg/day, Recovery day 20
# [51] = male rats, 1.2 mg/kg/day, Recovery day 27
# [52] = male rats, 2.4 mg/kg/day, Day 3
# [53] = male rats, 2.4 mg/kg/day, Day 7
# [54] = male rats, 2.4 mg/kg/day, Day 10
# [55] = male rats, 2.4 mg/kg/day, Day 14
# [56] = male rats, 2.4 mg/kg/day, Day 17
# [57] = male rats, 2.4 mg/kg/day, Day 21
# [58] = male rats, 2.4 mg/kg/day, Day 24
# [59] = male rats, 2.4 mg/kg/day, Day 28
# [60] = male rats, 2.4 mg/kg/day, Recovery day 20
# [61] = male rats, 2.4 mg/kg/day, Recovery day 27
compound,measurement,setting,value
Fc1ccc([C@]2(CCNCc3cccc(Cl)c3)CCO[C@]3(CCOC3)C2)nc1 [LPM3480392],Food consumption,[1]; [2],12.6 ± 1.3 g/animal/cage/day
same,Food consumption change rate,[1]; [2],−14.86%
same,Food consumption,[1]; [3],15.4 ± 1.1 g/animal/cage/day
same,Food consumption change rate,[1]; [3],1.32%
same,Food consumption,[1]; [4],15.9 ± 1.1 g/animal/cage/day
same,Food consumption change rate,[1]; [4],−3.05%
same,Food consumption,[1]; [5],16.0 ± 0.5 g/animal/cage/day
same,Food consumption change rate,[1]; [5],−15.79%
same,Food consumption,[1]; [6],15.8 ± 1.0 g/animal/cage/day
same,Food consumption change rate,[1]; [6],9.72%
same,Food consumption,[1]; [7],15.7 ± 0.7 g/animal/cage/day
same,Food consumption change rate,[1]; [7],−1.88%
same,Food consumption,[1]; [8],14.9 ± 1.4 g/animal/cage/day
same,Food consumption change rate,[1]; [8],−6.29%
same,Food consumption,[1]; [9],16.4 ± 0.9 g/animal/cage/day
same,Food consumption change rate,[1]; [9],−0.61%
same,Food consumption,[1]; [10],15.9 g/animal/cage/day
same,Food consumption change rate,[1]; [10],−5.36%
same,Food consumption,[1]; [11],13.3 g/animal/cage/day
same,Food consumption change rate,[1]; [11],−15.82%
same,Food consumption,[1]; [12],14.9 ± 1.1 g/animal/cage/day
same,Food consumption change rate,[1]; [12],0.68%
same,Food consumption,[1]; [13],15.0 ± 1.3 g/animal/cage/day
same,Food consumption change rate,[1]; [13],−1.32%
same,Food consumption,[1]; [14],15.2 ± 0.6 g/animal/cage/day
same,Food consumption change rate,[1]; [14],−7.32%
same,Food consumption,[1]; [15],15.7 ± 0.9 g/animal/cage/day
same,Food consumption change rate,[1]; [15],−17.37%
same,Food consumption,[1]; [16],16.6 ± 0.2 g/animal/cage/day
same,Food consumption change rate,[1]; [16],15.28%
same,Food consumption,[1]; [17],15.8 ± 1.4 g/animal/cage/day
same,Food consumption change rate,[1]; [17],−1.25%
same,Food consumption,[1]; [18],16.6 ± 1.7 g/animal/cage/day
same,Food consumption change rate,[1]; [18],4.40%
same,Food consumption,[1]; [19],16.4 ± 0.8 g/animal/cage/day
same,Food consumption change rate,[1]; [19],−0.61%
same,Food consumption,[1]; [20],15.1 g/animal/cage/day
same,Food consumption change rate,[1]; [20],−10.12%
same,Food consumption,[1]; [21],16.7 g/animal/cage/day
same,Food consumption change rate,[1]; [21],5.70%
same,Food consumption,[1]; [22],13.0 ± 2.1 g/animal/cage/day
same,Food consumption change rate,[1]; [22],−12.16%
same,Food consumption,[1]; [23],15.8 ± 1.9 g/animal/cage/day
same,Food consumption change rate,[1]; [23],3.95%
same,Food consumption,[1]; [24],15.1 ± 0.8 g/animal/cage/day
same,Food consumption change rate,[1]; [24],−7.93%
same,Food consumption,[1]; [25],17.5 ± 1.0 g/animal/cage/day
same,Food consumption change rate,[1]; [25],−7.89%
same,Food consumption,[1]; [26],15.1 ± 1.0 g/animal/cage/day
same,Food consumption change rate,[1]; [26],4.86%
same,Food consumption,[1]; [27],17.5 ± 1.3 g/animal/cage/day
same,Food consumption change rate,[1]; [27],9.38%
same,Food consumption,[1]; [28],15.6 ± 1.2 g/animal/cage/day
same,Food consumption change rate,[1]; [28],−1.89%
same,Food consumption,[1]; [29],16.7 ± 0.8 g/animal/cage/day
same,Food consumption change rate,[1]; [29],1.21%
same,Food consumption,[1]; [30],16.4 g/animal/cage/day
same,Food consumption change rate,[1]; [30],−2.38%
same,Food consumption,[1]; [31],15.0 g/animal/cage/day
same,Food consumption change rate,[1]; [31],−5.06%
same,Food consumption,[1]; [32],19.7 ± 0.1 g/animal/cage/day
same,Food consumption change rate,[1]; [32],−2.96%
same,Food consumption,[1]; [33],20.8 ± 0.6 g/animal/cage/day
same,Food consumption change rate,[1]; [33],−8.37%
same,Food consumption,[1]; [34],23.0 ± 1.6 g/animal/cage/day
same,Food consumption change rate,[1]; [34],−17.56%
same,Food consumption,[1]; [35],21.0 ± 1.3 g/animal/cage/day
same,Food consumption change rate,[1]; [35],−17.32%
same,Food consumption,[1]; [36],21.1 ± 1.9 g/animal/cage/day
same,Food consumption change rate,[1]; [36],−11.34%
same,Food consumption,[1]; [37],21.6 ± 0.8 g/animal/cage/day
same,Food consumption change rate,[1]; [37],−9.24%
same,Food consumption,[1]; [38],20.6 ± 1.0 g/animal/cage/day
same,Food consumption change rate,[1]; [38],−8.04%
same,Food consumption,[1]; [39],22.9 ± 1.2 g/animal/cage/day
same,Food consumption change rate,[1]; [39],−5.76%
same,Food consumption,[1]; [40],25.2 g/animal/cage/day
same,Food consumption change rate,[1]; [40],0.40%
same,Food consumption,[1]; [41],22.3 g/animal/cage/day
same,Food consumption change rate,[1]; [41],0.90%
same,Food consumption,[1]; [42],19.2 ± 0.9 g/animal/cage/day
same,Food consumption change rate,[1]; [42],−5.42%
same,Food consumption,[1]; [43],20.5 ± 0.7 g/animal/cage/day
same,Food consumption change rate,[1]; [43],−9.69%
same,Food consumption,[1]; [44],20.4 ± 1.8 g/animal/cage/day
same,Food consumption change rate,[1]; [44],−26.88%
same,Food consumption,[1]; [45],20.2 ± 0.7 g/animal/cage/day
same,Food consumption change rate,[1]; [45],−20.47%
same,Food consumption,[1]; [46],20.5 ± 1.7 g/animal/cage/day
same,Food consumption change rate,[1]; [46],−13.87%
same,Food consumption,[1]; [47],23.2 ± 1.2 g/animal/cage/day
same,Food consumption change rate,[1]; [47],−2.52%
same,Food consumption,[1]; [48],22.2 ± 1.1 g/animal/cage/day
same,Food consumption change rate,[1]; [48],−0.89%
same,Food consumption,[1]; [49],22.5 ± 1.3 g/animal/cage/day
same,Food consumption change rate,[1]; [49],−7.41%
same,Food consumption,[1]; [50],24.5 g/animal/cage/day
same,Food consumption change rate,[1]; [50],−2.39%
same,Food consumption,[1]; [51],22.6 g/animal/cage/day
same,Food consumption change rate,[1]; [51],2.26%
same,Food consumption,[1]; [52],17.8 ± 0.8 g/animal/cage/day
same,Food consumption change rate,[1]; [52],−12.32%
same,Food consumption,[1]; [53],20.0 ± 2.3 g/animal/cage/day
same,Food consumption change rate,[1]; [53],−11.89%
same,Food consumption,[1]; [54],20.1 ± 1.9 g/animal/cage/day
same,Food consumption change rate,[1]; [54],−27.96%
same,Food consumption,[1]; [55],17.3 ± 5.2 g/animal/cage/day
same,Food consumption change rate,[1]; [55],−31.89%
same,Food consumption,[1]; [56],20.1 ± 0.7 g/animal/cage/day
same,Food consumption change rate,[1]; [56],−15.55%
same,Food consumption,[1]; [57],23.2 ± 1.1 g/animal/cage/day
same,Food consumption change rate,[1]; [57],−2.52%
same,Food consumption,[1]; [58],22.1 ± 3.0 g/animal/cage/day
same,Food consumption change rate,[1]; [58],−1.34%
same,Food consumption,[1]; [59],22.5 ± 1.9 g/animal/cage/day
same,Food consumption change rate,[1]; [59],−7.41%
same,Food consumption,[1]; [60],24.0 g/animal/cage/day
same,Food consumption change rate,[1]; [60],−4.38%
same,Food consumption,[1]; [61],23.8 g/animal/cage/day
same,Food consumption change rate,[1]; [61],7.69%
same,"Emax, β-arrestin-2 recruitment activity",µ-opioid receptor (MOR),1.6%
same,EC50,"µ-opioid receptor (MOR); read-out: EC50, β-arrestin-2 recruitment activity",> 30 µM
same,"Mild to severe increased activity, starting day",Sprague Dawley (SD) rats; 0.6 mg/kg/day,7
same,"Mild to severe increased activity, starting day",Sprague Dawley (SD) rats; 1.2 mg/kg/day,4
same,"Increased muscle tone, incidence","Sprague Dawley (SD) rats; 1.2 mg/kg/day, first 5 days of dosing phase",33/38
same,"Deep respiration or rale, incidence",Sprague Dawley (SD) rats; 2.4 mg/kg/day,4/36
same,"Hunchback, incidence",Sprague Dawley (SD) rats; 2.4 mg/kg/day,1/36
same,"Piloerection, incidence",Sprague Dawley (SD) rats; 2.4 mg/kg/day,1/36
same,Found dead (1 male and 1 female),"Sprague Dawley (SD) rats; 2.4 mg/kg/day, Days 3 and 15",2/30
same,"Decreased activity, incidence","Sprague Dawley (SD) rats; 2.4 mg/kg/day, a few time points during dosing phase",26/36
same,"Mild to severe increased activity, starting day",Sprague Dawley (SD) rats; 2.4 mg/kg/day,1
same,"Increased muscle tone, incidence","Sprague Dawley (SD) rats; 2.4 mg/kg/day, mostly complete dosing phase",36/36
